Columns and labels:
[1] = Plasma levels after transdermal administration to hairless mice; format: in vivo; settings: mouse, in vivo
Description: Tested compounds (20% solution or suspension in 1 mL isopropanol) are administered transdermally to the skin of intact hairless mice. The plasma levels of the parent compounds are determined by HPLC.

[2] = test system: mice; assay: Analgesic activity, acetic acid writhing; format: in vivo
Description: The prodrug compounds are administered either transdermally or orally. The parent compounds are administered orally. The number of writhing that occurred when mice are administered the acetic acid solution are counted, and the rate of inhibition based on the control group which was not pretreated with any test compounds is calculated. […] The A group is the control group.

[3] = test system: rats; assay: Antipyretic activity, E. coli suspension as pyrogen; format: in vivo; settings: in °C (unit assumed)
Description: Rats are administered with sterilized E. coli suspension as a pyrogen. Each group of rats are administered with a prodrug compounds or parent compounds at a dosage specified below. The prodrug compounds are administered either orally or transdermally. The parent compounds are administered orally.

[4] = test system: human skin tissue; settings: pH 7.4
[5] = test system: rat; settings: rats;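 further: acute toxicity in rats expressed as LD50, determined for both prodrugs and their parent compounds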
Description: The acute toxicity of the prodrug compounds and parent compounds are measured by LD50 of rat.

[6] = 50 mg/kg transdermally, 60 minutes before acetic acid
[7] = 50 mg/kg transdermally, 30 min before acetic acid
[8] = 100 mg/kg transdermally, 30 min before acetic acid
[9] = 50 mg/kg orally, 30 min before acetic acid
[10] = 100 mg/kg orally, 30 min before acetic acid
[11] = 100 mg/kg transdermally, 60 minutes before acetic acid

Compound | Peak plasma concentration of parent compound after prodrug compound [1] [mg/L] | t, time to peak plasma level of parent compound after prodrug compound [1] [min] | In vitro penetration rate (apparent flux), prodrug compounds [4] [μg/cm^2/h] | LD50 of HPP [5] [mg/kg] | % (rate of writhing inhibition) [2, 8] [%] | No. of Writhing [2, 8] | body temperature, t = 0 min ([3]; 100 mg/kg transdermally) | body temperature, t = 90 min ([3]; 100 mg/kg transdermally) | body temperature, t = 180 min ([3]; 100 mg/kg transdermally) | body temperature, t = 270 min ([3]; 100 mg/kg transdermally) | further results
4-N,N-dimethylaminobutyryloxy-2-methyl-N-[5-Methyl-3-isoxolyl-2H-1,2-benzothiazine-3-carboxamide 1,1-dioxide].HCl | 20 | 50 | 1800 | 570 | – | – | – | – | – | – | % (rate of writhing inhibition) [2, 6]: 55%; No. of Writhing [2, 6]: 15.8; body temperature, t = 0 min ([3]; 25 mg/kg transdermally): 37.52 ± 0.06; body temperature, t = 90 min ([3]; 25 mg/kg transdermally): 36.62 ± 0.07; body temperature, t = 180 min ([3]; 25 mg/kg transdermally): 36.53 ± 0.06; body temperature, t = 270 min ([3]; 25 mg/kg transdermally): 36.60 ± 0.05
Cc1cnc(NC(=O)C2=C(OC(=O)CCCN(C)C)c3ccccc3S(=O)(=O)N2C)s1.Cl [4-N,N-dimethylaminobutyryloxy-2-methyl-N-(5-methyl-2-thiazolyl)-2H-1,2-benzothiazine-3-carboxamide-1,1-dioxide.HCl] | 20 | – | 1900 | 590 | – | – | – | – | – | – | % (rate of writhing inhibition) [2, 6]: 48%; No. of Writhing [2, 6]: 18.2; body temperature, t = 0 min ([3]; 25 mg/kg transdermally): 37.57 ± 0.07; body temperature, t = 90 min ([3]; 25 mg/kg transdermally): 36.53 ± 0.08; body temperature, t = 180 min ([3]; 25 mg/kg transdermally): 36.52 ± 0.08; body temperature, t = 270 min ([3]; 25 mg/kg transdermally): 36.50 ± 0.07
CN(C)CCCC(=O)OC1=C(C(=O)Nc2ccccn2)N(C)S(=O)(=O)c2cc(Cl)sc21.Cl [6-chloro-4-N,N-dimethylaminobutyryloxy-2-methyl-N-2-pyridinyl-2H-thieno[2,3-e]-1,2-thiazine-3-carboxamide 1,1-dioxide.HCl] | 20 | – | 1600 | 580 | – | – | – | – | – | – | % (rate of writhing inhibition) [2, 6]: 53%; No. of Writhing [2, 6]: 16.5; body temperature, t = 0 min ([3]; 25 mg/kg transdermally): 37.55 ± 0.05; body temperature, t = 90 min ([3]; 25 mg/kg transdermally): 36.66 ± 0.06; body temperature, t = 180 min ([3]; 25 mg/kg transdermally): 36.60 ± 0.06; body temperature, t = 270 min ([3]; 25 mg/kg transdermally): 36.61 ± 0.07
CC(=O)O.CCN(CC)CCOC(=O)C(C)c1cccc(C(=O)c2ccccc2)c1 (centres unmarked) [diethylaminoethyl 2-(3-benzoylphenyl) propionate.AcOH] | 20 | 40 | 1150 | 300 | – | – | – | – | – | – | % (rate of writhing inhibition) [2, 7]: 59%; No. of Writhing [2, 7]: 14.2; body temperature, t = 0 min ([3]; 50 mg/kg transdermally): 37.28 ± 0.06; body temperature, t = 90 min ([3]; 50 mg/kg transdermally): 36.65 ± 0.06; body temperature, t = 180 min ([3]; 50 mg/kg transdermally): 36.58 ± 0.08; body temperature, t = 270 min ([3]; 50 mg/kg transdermally): 36.60 ± 0.07
CC(=O)O.CCN(CC)CCOC(=O)C(C)c1cccc(Oc2ccccc2)c1 (centres unmarked) [diethylaminoethyl 2-(3-phenoxyphenyl) propionate.AcOH] | 20 | 40 | 1250 | 1500 | – | – | – | – | – | – | % (rate of writhing inhibition) [2, 7]: 60%; No. of Writhing [2, 7]: 14.0; body temperature, t = 0 min ([3]; 50 mg/kg transdermally): 37.28 ± 0.06; body temperature, t = 90 min ([3]; 50 mg/kg transdermally): 36.65 ± 0.06; body temperature, t = 180 min ([3]; 50 mg/kg transdermally): 36.58 ± 0.08; body temperature, t = 270 min ([3]; 50 mg/kg transdermally): 36.56 ± 0.07
CC(=O)O.CCN(CC)CCOC(=O)C(C)c1ccc2oc(-c3ccc(Cl)cc3)nc2c1 (stereo not drawn) [diethylaminoethyl 2-(4-chlorophenyl)-α-methyl-5-benzoxazoleacetate.AcOH] | 2000 | 50 | 4000 | 1300 | 51 | 17.1 | 37.25 ± 0.07 | 36.82 ± 0.06 | 36.70 ± 0.05 | 36.50 ± 0.08 | –
CC(=O)O.CCN(CC)CCOC(=O)C(C)c1ccc2cc(OC)ccc2c1 (centres unmarked) [diethylaminoethyl 2-(6-methoxy-2-naphthyl)propionate.AcOH] | 2000 | 50 | 3500 | 2200 | 51 | 17.1 | 37.33 ± 0.07 | 36.80 ± 0.06 | 36.72 ± 0.05 | 36.50 ± 0.08 | –
CC(=O)O.CCN(CC)CCOC(=O)C(C)c1ccc(CC(C)C)cc1 (centres unmarked) [diethylaminoethyl 2-(ρ-isobutylphenyl) propionate.AcOH] | 120 | 30 | 1250 | 1800 | 71 | 9.8 | 37.27 ± 0.06 | 36.30 ± 0.06 | 36.35 ± 0.08 | 36.31 ± 0.07 | % (rate of writhing inhibition) [2, 9]: 59%; No. of Writhing [2, 9]: 14.1; % (rate of writhing inhibition) [2, 7]: 61%; No. of Writhing [2, 7]: 13.3; % (rate of writhing inhibition) [2, 10]: 70%; No. of Writhing [2, 10]: 10.2; body temperature, t = 0 min ([3]; 100 mg/kg orally): 37.22 ± 0.07; body temperature, t = 90 min ([3]; 100 mg/kg orally): 36.40 ± 0.06; body temperature, t = 180 min ([3]; 100 mg/kg orally): 36.50 ± 0.05; body temperature, t = 270 min ([3]; 100 mg/kg orally): 36.45 ± 0.08; body temperature, t = 0 min ([3]; 150 mg/kg orally): 37.24 ± 0.08; body temperature, t = 90 min ([3]; 150 mg/kg orally): 36.30 ± 0.05; body temperature, t = 180 min ([3]; 150 mg/kg orally): 36.35 ± 0.07; body temperature, t = 270 min ([3]; 150 mg/kg orally): 36.38 ± 0.08; body temperature, t = 0 min ([3]; 150 mg/kg transdermally): 37.26 ± 0.05; body temperature, t = 90 min ([3]; 150 mg/kg transdermally): 36.25 ± 0.05; body temperature, t = 180 min ([3]; 150 mg/kg transdermally): 36.30 ± 0.07; body temperature, t = 270 min ([3]; 150 mg/kg transdermally): 36.20 ± 0.05
CC(=O)O.CCN(CC)CCOC(=O)c1cccnc1Nc1cccc(C(F)(F)F)c1C [diethylaminoethyl 2-[[2-methyl-3-(trifluoromethyl)phenyl]amino]-3-pyridinecarboxylate.AcOH] | 20 | 50 | 1700 | 1100 | – | – | 37.23 ± 0.06 | 36.69 ± 0.06 | 36.52 ± 0.08 | 36.40 ± 0.07 | % (rate of writhing inhibition) [2, 11]: 55%; No. of Writhing [2, 11]: 15.7
CC(=O)O.CCN(CC)CCOC(=O)c1cccnc1Nc1cccc(C(F)(F)F)c1 [diethylaminoethyl 2-[[3-(trifluoromethyl)phenyl]amino]-3-pyridinecarboxylate.AcOH] | 20 | 50 | 1800 | 750 | – | – | 37.25 ± 0.07 | 36.82 ± 0.06 | 36.70 ± 0.05 | 36.50 ± 0.08 | % (rate of writhing inhibition) [2, 11]: 57%; No. of Writhing [2, 11]: 15.2
CC(=O)O.CCN(CC)CCOC(=O)Cc1cccc(C(=O)c2ccccc2)c1N [diethylaminoethyl 2-amino-3-benzoylbenzeneacetate.AcOH] | 20 | 50 | 800 | 1000 | 61 | 13.8 | 37.22 ± 0.06 | 36.65 ± 0.05 | 36.62 ± 0.08 | 36.58 ± 0.07 | –
CC(=O)O.CCN(CC)CCOC(=O)C(C)c1ccc(N2Cc3ccccc3C2=O)cc1 (stereo not drawn) [diethylaminoethyl 4-(1,3-dihydro-1-oxo-2H-isoindol-2-yl)-α-methylbenzeneacetate.AcOH] | 2000 | 50 | 4200 | 3500 | 62 | 13.2 | 37.28 ± 0.06 | 36.65 ± 0.06 | 36.58 ± 0.08 | 36.56 ± 0.07 | –
CC(=O)O.CCN(CC)CCOC(=O)C1CCc2cc(C3CCCCC3)c(Cl)cc21 (centres unmarked) [diethylaminoethyl 6-chloro-5-cyclohexyl-2,3-dihydro-1H-indene-1-carboxylate.AcOH] | 2000 | 50 | 4000 | 200 | 57 | 15.2 | 37.25 ± 0.06 | 36.63 ± 0.06 | 36.55 ± 0.08 | 36.51 ± 0.07 | –

— US20210353579A1, “HIGH PENETRATION COMPOSITIONS AND USES THEREOF” (Techfields Pharma Co., Ltd., priority 2006, published 2021)
